Target: T1, GPR40 (Homo sapiens, UniProt O14842)
T1 construct: expressed in transfected cells
Experiment: IP1 accumulation assay (Cisbio IP-One HTRF) in HEK293 cells stably expressing GPR40
Type: cell-based
Settings: HEK293 cells stably expressing GPR40, 37° C. for 2 hours, % Effect relative to AMG-1638 positive control
Experimental: IP1 accumulation assay was used to evaluate the potency of compounds. HEK293 cells stably expressing GPR40 were cultured in 5% CO2 incubator (ThermoFisher) in maintenance media (Dulbecco's modified Eagle's medium with 4.5 g/L of glucose, 10% fetal bovine serum, 100 μg/mL Hygromycin, and Penicillin (100 U/mL)/Streptomycin (100 μg/mL)) till 100% confluency. Cells were harvested freshly, spun down at 300×g for 5 min, and resuspended in pre-warmed 1× stimulant buffer from Cisbio IP-One HTRF Detection kit (Cisbio). Cell density was adjusted to 2.0×10^6 cells/mL. DMSO was used as blank control and AMG-1638 (CAS #: 1142214-62-7) as positive control. Compounds were prepared at 10 mM in DMSO and 5 nL of 3× serially diluted compounds (10 concentrations) were added to each well of the 384-LDV assay plate (Corning) by using ECHO 550 (Labcyte). Five μL of cells in suspension were transferred into each well by using Multidrop Combi Reagent Dispenser (ThermoFisher). Assay plate was then sealed and incubated at 37° C. for 2 hours. IP-d2 reagent and anti-IP1 reagent were prepared following the manual (Cisbio). Five μL of IP1-d2 and then 5 μL of anti-IP1 antibody was added to each well sequentially. Assay plate was incubated at room temperature for 60 min and then read at 665 nm/615 nm on an Envision plate reader (PerkinElmer). The ratio of values obtained at 665 nm and 615 nm was used for calculation of IP1 accumulation: % Effect=(Ratiosample−Ratioblank)/(RatioAMG-1638−Ratioblank)×100. Dose curve was fitted and EC50 of each compound was calculated by using XLFit.

T1 sequence (O14842 whole entry): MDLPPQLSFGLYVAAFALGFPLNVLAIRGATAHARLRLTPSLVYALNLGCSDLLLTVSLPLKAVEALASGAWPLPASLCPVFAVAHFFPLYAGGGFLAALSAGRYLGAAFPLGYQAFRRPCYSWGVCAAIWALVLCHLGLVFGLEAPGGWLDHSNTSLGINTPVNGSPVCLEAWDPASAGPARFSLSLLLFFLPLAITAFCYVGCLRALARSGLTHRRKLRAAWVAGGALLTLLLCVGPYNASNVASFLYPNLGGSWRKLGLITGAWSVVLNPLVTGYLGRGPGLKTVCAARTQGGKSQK

Row | SMILES | EC50 [nM]
1 | COc1ccc(F)c(-c2ccc(COc3cccc([C@@H](CC(=O)O)C4CC4)c3)cc2CC(C)(C)CN=[N+]=[N-])c1 [Compound No. 237, (S)-3-(3-((2-(3-azido-2,2-dimethylpropyl)-2′-fluoro-5′-methoxy-[1,1′-biphenyl]-4-yl)methoxy)phenyl)-3-cyclopropylpropanoic acid] | 1 to 50
2 | COc1ccc2cc(CN=[N+]=[N-])oc2c1CN1CCC([C@H]2CCc3ccc([C@H](C4CC4)[C@H](C)C(=O)O)cc3O2)CC1 [compound 207, (2S,3R)-3-((R)-2-(1-((2-(azidomethyl)-6-methoxybenzofuran-7-yl)methyl)-piperidin-4-yl)chroman-7-yl)-3-cyclopropyl-2-methylpropanoic acid] | ≥ 5000
3 | COC(=O)CCCCCCCCCCCCCCCCCn1cc(COCC(C)(C)c2cc(COc3cccc([C@@H](CC(=O)O)C4CC4)c3)ccc2-c2cc(OC)ccc2F)nn1 [Compound No. 231, (S)-3-cyclopropyl-3-(3-((2′-fluoro-5′-methoxy-2-(1-((1-(18-methoxy-18-oxooctadecyl)-1H-1,2,3-triazol-4-yl)methoxy)-2-methylpropan-2-yl)-[1,1′-biphenyl]-4-yl)methoxy)phenyl)propanoic acid] | ≥ 5000
4 | COc1ccc(F)c(-c2ccc(COc3cccc([C@@H](CC(=O)O)C4CC4)c3)cc2C(OCCCCN=[N+]=[N-])C(C)(C)C)c1 (stereo partly drawn) [Compound No. 232, (3S)-3-(3-((2-(1-(4-azidobutoxy)-2,2-dimethylpropyl)-2′-fluoro-5′-methoxy-[1,1′-biphenyl]-4-yl)methoxy)phenyl)-3-cyclopropylpropanoic acid] | 1 to 50
5 | COc1ccc(F)c(-c2ccc(COc3cccc([C@@H](CC(=O)O)C4CC4)c3)cc2C(C)(C)n2cc(CCCCCCCCCCCCCCCCCC(=O)O)nn2)c1 [Compound No. 220, (S)-18-(1-(2-(4-((3-(2-carboxy-1-cyclopropylethyl)phenoxy)methyl)-2′-fluoro-5′-methoxy-[1,1′-biphenyl]-2-yl)propan-2-yl)-1H-1,2,3-triazol-4-yl)octadecanoic acid] | 1000 to 5000
6 | COc1ccc(F)c(-c2ccc(COc3cccc([C@@H](CC(=O)O)C4CC4)c3)cc2C(C)(C)CN=[N+]=[N-])c1 [Compound No. 224] | 1 to 50
7 | C[C@H](C(=O)O)[C@H](c1ccc2c(c1)O[C@H](C1CCN(Cc3cc(N=[N+]=[N-])ccc3OC(F)(F)F)CC1)CC2)C1CC1 [compound 194, (2S,3R)-3-((S)-2-(1-(5-azido-2-(trifluoromethoxy)benzyl)piperidin-4-yl)chroman-7-yl)-3-cyclopropyl-2-methylpropanoic acid] | 1 to 50
8 | CCCCCCn1cc(COc2cc(COc3cccc([C@H](CC)CC(=O)O)c3)ccc2-c2cc(OC)ccc2F)nn1 [Compound No. 213] | 1000 to 5000
9 | COc1ccc(F)c(-c2ccc(COc3cccc([C@@H](CC(=O)O)C4CC4)c3)cc2C(C)(C)COCc2cn(CCCCCCCCCCCCCCCCCC(=O)O)nn2)c1 [Compound No. 230] | 250 to 1000
10 | COc1ccc(F)c(-c2ccc(COc3cccc([C@@H](CC(=O)O)C4CC4)c3)cc2C(C)(C)c2cn(CCCCCCCCCCCCCCCCCC(=O)O)nn2)c1 [Compound No. 221, (S)-18-[4-(1-{4-[3-(2-Carboxy-1-cyclopropyl-ethyl)-phenoxymethyl]-2′-fluoro-5′-methoxy-biphenyl-2-yl}-1-methyl-ethyl)-[1,2,3]triazol-1-yl]-octadecanoic acid] | 250 to 1000
11 | CCCCCCCCCCc1ccc(OC(F)(F)F)c(CN2CCC([C@H]3CCc4ccc([C@H](C5CC5)[C@H](C)C(=O)O)cc4O3)CC2)c1 [compound 205, (2S,3R)-3-cyclopropyl-3-((R)-2-(1-(5-decyl-2-(trifluoromethoxy)benzyl)piperidin-4-yl)chroman-7-yl)-2-methylpropanoic acid] | 50 to 250
